Measurements reported in paper PMC6271890, “Synthesis and Antiproliferative Activity of Some Novel Triazole Derivatives from Dehydroabietic Acid” (Molecules, 2014).

How the values were obtained:
[1] = tested on: gastric epithelial adenocarcinoma (AGS) cells; assay: Antiproliferative assay (MTT reduction), AGS cells; assay type: cell-based, human; set-up: key to antiproliferative activity in words, AGS: IC50 values > 100 µM were considered inactive; conditions: for IC50: Homo sapiens, 72 h, AGS gastric adenocarcinoma cells, 3 days treatment, MTT, mean ± SD
Protocol: (§1) All human cell lines used in this work were purchased from the American Type Culture Collection (ATCC, Manasas, VA, USA). Normal lung MRC-5 fibroblasts (CCL-171), SK-MES-1 lung cancer cells (HTB-58) and J82 bladder carcinoma cells (HTB-1) were grown as monolayers in minimum essential Eagle medium (MEM) with Earles’s salts, 2 mM L-glutamine and 1.5 g/L sodium bicarbonate. Gastric adenocarcinoma AGS cells (CRL-1739) were grown as monolayers in Ham F-12 medium containing 1 mM L-glutamine and 1.5 g/L sodium bicarbonate. All media were supplemented with 10% heat-inactivated FBS, 100 IU/mL penicillin and 100 µg/mL streptomycin. Cells were grown in a humidified incubator with 5% CO2 in air at 37 °C. For the antiproliferative assay, cells were plated at a density of 5 × 10^4 cells/mL. Cells were seeded in 96-well plates (100 µL/well). One day after seeding, cells were treated with medium containing the compounds at concentrations ranging from 0 up to 100 µM during 3 days. The compounds were dissolved in DMSO (1% final concentration) and complete medium. Untreated cells (medium containing 1% DMSO) were used as 100% viability controls. […] Each concentration was tested in sextuplicate and experiments were repeated 2 times. Cell viability was determined by means of the MTT reduction assay at the end of the incubation with the products. The results were transformed to percentage of controls and the IC50 value was obtained adjusting the dose-response curve to a sigmoidal model. The software used was OriginPro 8.1 [23].

[2] = tested on: normal lung fibroblasts (MRC-5); assay: Antiproliferative assay (MTT reduction), MRC-5 fibroblasts; assay type: cell-based, human; set-up: key to antiproliferative activity in words, MRC-5: IC50 values > 100 µM were considered inactive; conditions: for IC50: Homo sapiens, MRC5, 72 h, MRC-5 normal lung fibroblasts, 3 days treatment, MTT, mean ± SD; for antiproliferative activity in words, MRC-5: MRC-5 fibroblasts
Protocol: as §1, with “Normal lung MRC-5 fibroblasts (CCL-171), SK-MES-1 lung cancer cells (HTB-58) and J82 bladder carcinoma cells (HTB-1) were grown as monolayers in minimum essential Eagle medium (MEM) with Earles’s salts, 2 mM L-glutamine and 1.5 g/L sodium bicarbonate. Gastric adenocarcinoma AGS cells (CRL-1739) were grown as monolayers in Ham F-12 medium containing 1 mM L-glutamine and 1.5 g/L sodium bicarbonate.” left out, “The results were transformed to percentage of controls and the IC50 value was obtained adjusting the dose-response curve to a sigmoidal model.” left out

[3] = tested on: lung cancer (SK-MES-1) cells; assay: Antiproliferative assay (MTT reduction), SK-MES-1 cells; assay type: cell-based, human; conditions: for IC50: Homo sapiens, 72 h, SK-MES-1 lung cancer cells, 3 days treatment, MTT, mean ± SD; for antiproliferative activity in words, SK-MES-1: SK-MES-1 cells
Protocol: as §1, with “Normal lung MRC-5 fibroblasts (CCL-171), SK-MES-1 lung cancer cells (HTB-58) and J82 bladder carcinoma cells (HTB-1) were grown as monolayers in minimum essential Eagle medium (MEM) with Earles’s salts, 2 mM L-glutamine and 1.5 g/L sodium bicarbonate. Gastric adenocarcinoma AGS cells (CRL-1739) were grown as monolayers in Ham F-12 medium containing 1 mM L-glutamine and 1.5 g/L sodium bicarbonate.” left out, “The results were transformed to percentage of controls and the IC50 value was obtained adjusting the dose-response curve to a sigmoidal model.” left out

[4] = tested on: bladder carcinoma (J82) cells; assay: Antiproliferative assay (MTT reduction), J82 cells; assay type: cell-based, human; set-up: key to antiproliferative activity in words, J82: IC50 values > 100 µM were considered inactive; conditions: for IC50: Homo sapiens, 72 h, J82 bladder carcinoma cells, 3 days treatment, MTT, mean ± SD
Protocol: as §1

[5] = tested on: MCF-7, Hela and liver cancer 7721 cells; set-up: method as in PMID 21345546; conditions: range over MCF-7, Hela and liver cancer 7721 cells; read-out: IC50 values (cytotoxicity); cited from earlier work

| SMILES | IC50 [1] [µM] | IC50 [2] [µM] | IC50 [3] [µM] | IC50 [4] [µM] | antiproliferative activity in words, AGS ([1]; AGS cells) | antiproliferative activity in words, MRC-5 [2] | antiproliferative activity in words, SK-MES-1 [3] | antiproliferative activity in words, J82 ([4]; J82 cells) | IC50 [5] [µM] |
| --- | --- | --- | --- | --- | --- | --- | --- | --- | --- |
| CC(C)c1ccc2c(c1)CCC1[C@](C)(COC(=O)CCc3cn(-c4ccccc4)nn3)CCC[C@]21C (some centres unmarked) [Compound 5, 18-(3-(1-Phenyl-1H-1,2,3-triazol-4-yl)propanoyloxy)-8,11,13-abietatriene] | 44.5 ± 1.9 | 17.1 ± 0.6 | 6.1 ± 0.3 | 83.3 ± 3.3 | – | – | – | – | – |
| CC(C)c1ccc2c(c1)CCC1[C@](C)(COC(=O)CCCCc3cn(-c4ccccc4)nn3)CCC[C@]21C (some centres unmarked) [Compound 6, 18-(5-(1-Phenyl-1H-1,2,3-triazol-4-yl)pentanoyloxy)-8,11,13-abietatriene] | > 100 | > 100 | > 100 | > 100 | inactive | inactive | inactive | inactive | – |
| CC(C)c1ccc2c(c1)CCC1[C@](C)(COC(=O)CCCCc3cn(-c4cccc(Cl)c4)nn3)CCC[C@]21C (some centres unmarked) [Compound 14, 18-(5-(1-(3-Chlorophenyl)-1H-1,2,3-triazol-4-yl)pentanoyloxy)-8,11,13-abietatriene] | > 100 | > 100 | > 100 | > 100 | – | – | – | – | – |
| CN(C)CCN1C(=O)c2cccc3cc(N)cc(c23)C1=O [amonafide] | – | – | – | – | – | – | – | – | 1.68 to 4.27 |
| CC(C)c1ccc2c(c1)CCC1[C@](C)(COC(=O)CCc3cn(Cc4ccccc4)nn3)CCC[C@]21C (some centres unmarked) [Compound 7, 18-(3-(1-Benzyl-1H-1,2,3-triazol-4-yl)propanoyloxy)-8,11,13-abietatriene] | 36.7 ± 1.5 | > 100 | 39.7 ± 2.7 | 25.6 ± 1.9 | – | inactive | – | – | – |
| Cc1ccc(S(=O)(=O)n2cc(CCC(=O)OC[C@]3(C)CCC[C@]4(C)c5ccc(C(C)C)cc5CCC34)nn2)cc1 (some centres unmarked) [Compound 15, 18-(3-(1-(4-Toluenesulfonyl)-1H-1,2,3-triazol-4-yl)propanoyloxy)-8,11,13-abietatriene] | 74.9 ± 3.7 | 82.9 ± 4.5 | 84.4 ± 5.1 | > 100 | – | – | – | – | – |
| COc1ccc(-n2cc(CCC(=O)OC[C@]3(C)CCC[C@]4(C)c5ccc(C(C)C)cc5CCC34)nn2)cc1 (some centres unmarked) [Compound 11, 18-(3-(1-(4-Anisidyl)-1H-1,2,3-triazol-4-yl)propanoyloxy)-8,11,13-abietatriene] | > 100 | > 100 | > 100 | > 100 | – | – | – | – | – |
| CC(C)c1ccc2c(c1)CCC1[C@](C)(C(=O)OCCc3cn(CSc4ccccc4)nn3)CCC[C@]21C (some centres unmarked) [Compound 4, 18-(2-(((1-Phenylthio)methyl)-1H-1,2,3-triazol-4-yl)ethyl)-8,11,13-abietatrienoate] | 66 ± 4.4 | 50.2 ± 3.1 | 28.9 ± 2.1 | 28.1 ± 1.7 | – | – | – | – | – |
| COc1cc([C@@H]2c3cc4c(cc3[C@@H](O[C@@H]3O[C@@H]5CO[C@@H](C)O[C@H]5[C@H](O)[C@H]3O)[C@H]3COC(=O)[C@H]23)OCO4)cc(OC)c1O [Etoposide, reference compound] | 0.58 ± 0.02 | – | – | 3.49 ± 0.16 | – | – | – | – | – |
| CC(C)c1ccc2c(c1)CCC1[C@](C)(COC(=O)CCCCc3cn(Cc4ccccc4)nn3)CCC[C@]21C (some centres unmarked) [Compound 8, 18-(5-(1-Benzyl-1H-1,2,3-triazol-4-yl)pentanoyloxy)-8,11,13-abietatriene] | 35.9 ± 1.7 | > 100 | 37 ± 2.6 | 26.8 ± 1.8 | – | inactive | – | – | – |
| COc1ccc(-n2cc(CCCCC(=O)OC[C@]3(C)CCC[C@]4(C)c5ccc(C(C)C)cc5CCC34)nn2)cc1 (some centres unmarked) [Compound 12, 18-(5-(1-(4-Anisidyl)-1H-1,2,3-triazol-4-yl)pentanoyloxy)-8,11,13-abietatriene] | > 100 | > 100 | > 100 | > 100 | – | – | – | – | – |
| CC(C)c1ccc2c(c1)CCC1[C@](C)(COC(=O)CCc3cn(CSc4ccccc4)nn3)CCC[C@]21C (some centres unmarked) [Compound 9, 18-(3-(((1-Phenylthio)methyl)-1H-1,2,3-triazol-4-yl)propanoyloxy)-8,11,13-abietatriene] | 47.7 ± 2.9 | 73.3 ± 3.7 | 43.6 ± 2.9 | 49.9 ± 2.9 | – | – | – | – | – |
| Cc1ccc(S(=O)(=O)n2cc(CCCCC(=O)OC[C@]3(C)CCC[C@]4(C)c5ccc(C(C)C)cc5CCC34)nn2)cc1 (some centres unmarked) [Compound 16, 18-(5-(1-(4-Toluenesulfonyl)-1H-1,2,3-triazol-4-yl)pentanoyloxy)-8,11,13-abietatriene] | 56.9 ± 3.3 | 68.8 ± 4.5 | 74.2 ± 5.4 | 75 ± 6.1 | – | – | – | – | – |
| CC(C)c1ccc2c(c1)CCC1[C@](C)(COC(=O)CCc3cn(-c4cccc(Cl)c4)nn3)CCC[C@]21C (some centres unmarked) [Compound 13, 18-(3-(1-(3-Chlorophenyl)-1H-1,2,3-triazol-4-yl)propanoyloxy)-8,11,13-abietatriene] | > 100 | > 100 | > 100 | > 100 | – | – | – | – | – |
| CC(C)c1ccc2c(c1)CCC1[C@](C)(C(=O)OCc3cn(CSc4ccccc4)nn3)CCC[C@]21C (some centres unmarked) [Compound 3, 18-((((1-Phenylthio)methyl)-1H-1,2,3-triazol-4-yl)methyl)-8,11,13-abietatrienoate] | 94.4 ± 5.4 | > 100 | > 100 | > 100 | – | inactive | inactive | – | – |
| CC(C)c1ccc2c(c1)CCC1[C@](C)(C(=O)OCc3cn(-c4ccccc4)nn3)CCC[C@]21C (some centres unmarked) [Compound 1, 18-((1-Phenyl-1H-1,2,3-triazol-4-yl)methyl)-8,11,13-abietatrienoate] | 79.9 ± 4.8 | 85.8 ± 4.6 | 77.3 ± 4.7 | 46.3 ± 2.3 | – | – | – | – | – |
| CC(C)c1ccc2c(c1)CCC1[C@](C)(COC(=O)CCCCc3cn(CSc4ccccc4)nn3)CCC[C@]21C (some centres unmarked) [Compound 10] | 58.9 ± 3.4 | > 100 | 42.7 ± 2.9 | 33.9 ± 1.7 | – | – | – | – | – |
| CC(C)c1ccc2c(c1)CCC1[C@](C)(C(=O)OCCc3cn(-c4ccccc4)nn3)CCC[C@]21C (some centres unmarked) [Compound 2, 18-(2-(1-Phenyl-1H-1,2,3-triazol-4-yl)ethyl)-8,11,13-abietatrienoate] | 90.2 ± 5.4 | > 100 | > 100 | 76.3 ± 5.9 | – | inactive | inactive | – | – |
